Results taken from patent publication US20140018347A1, “BENZOXAZEPINES AS INHIBITORS OF mTOR AND METHODS OF THEIR USE AND MANUFACTURE” (Exelixis, Inc., priority 2010, published 2014).
pIC50: −log10 of the molar value.

Key:
mTORC1 = mTORC1 (Homo sapiens, UniProt P42345); assay: mTOR/GbL/Raptor (mTORC1) ELISA Assay; type: biochemical; details: phosphorylation of 4E-BP1; 0.2 nM mTORC1, 10 μM ATP
Protocol: The measurement of mTORC1 enzyme activity was performed in an ELISA assay format following the phosphorylation of 4E-BP1 protein. All experiments were performed in the 384-well format. Generally, 0.5 μL DMSO containing varying concentrations of the test compound was mixed with 15 μL enzyme solution. Kinase reactions were initiated with the addition of 15 μL of substrates-containing solution. The assay conditions were as follows; 0.2 nM mTORC1, 10 μM ATP and 50 nM NHis-tagged 4E-BP1 in 20 mM Hepes, pH 7.2, 1 mM DTT, 50 mM NaCl, 10 mM MnCl2, 0.02 mg/mL BSA, 0.01% CHAPS, 50 mM β-glycerophosphate. Following an incubation of 120 minutes at ambient temperature, 20 μL of the reaction volume was transferred to a Ni-Chelate-coated 384-well plate. The binding step of the 4E-BP1 protein proceeded for 60 minutes, followed by washing 4 times each with 50 μL of Tris-buffered saline solution (TBS). Anti-phospho-4E-BP1 rabbit-IgG (20 μL, 1:5000) in 5% BSA-TBST (0.2% Tween-20 in TBS) was added and further incubated for 60 minutes. Incubation with a secondary HRP-tagged anti-IgG was similarly performed after washing off the primary antibody (4 washes of 50 μL). Following the final wash step with TBST, 20 μL of SuperSignal ELISA Femto (Pierce Biotechnology) was added and the luminescence measured using an EnVision plate reader.

PI3Kalpha = PI3Kalpha (Homo sapiens, UniProt P42336); assay: PI3K Biochemical Assays (PI3K-alpha assay); details: ATP consumption, luciferase-luciferin; 1 μM ATP, 10 μM PIP2
Chain of PI3Kalpha (P42336 whole entry): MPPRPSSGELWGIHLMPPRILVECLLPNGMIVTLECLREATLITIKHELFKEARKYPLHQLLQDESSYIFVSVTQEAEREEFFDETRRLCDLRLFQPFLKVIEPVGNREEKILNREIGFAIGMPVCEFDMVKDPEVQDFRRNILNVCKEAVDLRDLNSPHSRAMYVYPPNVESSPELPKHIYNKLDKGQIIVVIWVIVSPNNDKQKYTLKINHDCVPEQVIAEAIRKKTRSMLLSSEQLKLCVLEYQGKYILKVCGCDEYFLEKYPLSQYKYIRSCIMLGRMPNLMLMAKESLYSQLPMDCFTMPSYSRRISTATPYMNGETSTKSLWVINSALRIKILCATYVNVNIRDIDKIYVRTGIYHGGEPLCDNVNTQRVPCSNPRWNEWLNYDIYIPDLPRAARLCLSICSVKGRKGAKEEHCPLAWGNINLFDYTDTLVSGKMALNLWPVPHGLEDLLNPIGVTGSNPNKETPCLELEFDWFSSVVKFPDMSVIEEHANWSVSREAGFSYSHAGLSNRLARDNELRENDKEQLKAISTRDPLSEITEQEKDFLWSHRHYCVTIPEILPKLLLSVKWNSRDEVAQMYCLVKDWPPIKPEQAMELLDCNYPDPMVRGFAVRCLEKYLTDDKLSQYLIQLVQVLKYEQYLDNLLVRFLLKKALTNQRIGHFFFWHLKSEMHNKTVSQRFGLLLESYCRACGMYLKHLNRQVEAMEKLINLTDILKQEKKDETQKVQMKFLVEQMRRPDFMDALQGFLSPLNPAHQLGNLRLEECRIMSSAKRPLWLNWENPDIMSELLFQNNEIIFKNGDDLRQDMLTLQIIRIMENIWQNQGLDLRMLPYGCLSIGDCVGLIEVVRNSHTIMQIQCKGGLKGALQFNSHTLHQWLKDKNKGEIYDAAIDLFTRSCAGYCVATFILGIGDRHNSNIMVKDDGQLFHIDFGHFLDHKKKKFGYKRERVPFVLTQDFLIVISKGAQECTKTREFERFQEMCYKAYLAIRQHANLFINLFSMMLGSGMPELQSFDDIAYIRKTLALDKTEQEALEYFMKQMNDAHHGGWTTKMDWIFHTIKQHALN
Chain of PI3Kalpha (P27986 whole entry partner): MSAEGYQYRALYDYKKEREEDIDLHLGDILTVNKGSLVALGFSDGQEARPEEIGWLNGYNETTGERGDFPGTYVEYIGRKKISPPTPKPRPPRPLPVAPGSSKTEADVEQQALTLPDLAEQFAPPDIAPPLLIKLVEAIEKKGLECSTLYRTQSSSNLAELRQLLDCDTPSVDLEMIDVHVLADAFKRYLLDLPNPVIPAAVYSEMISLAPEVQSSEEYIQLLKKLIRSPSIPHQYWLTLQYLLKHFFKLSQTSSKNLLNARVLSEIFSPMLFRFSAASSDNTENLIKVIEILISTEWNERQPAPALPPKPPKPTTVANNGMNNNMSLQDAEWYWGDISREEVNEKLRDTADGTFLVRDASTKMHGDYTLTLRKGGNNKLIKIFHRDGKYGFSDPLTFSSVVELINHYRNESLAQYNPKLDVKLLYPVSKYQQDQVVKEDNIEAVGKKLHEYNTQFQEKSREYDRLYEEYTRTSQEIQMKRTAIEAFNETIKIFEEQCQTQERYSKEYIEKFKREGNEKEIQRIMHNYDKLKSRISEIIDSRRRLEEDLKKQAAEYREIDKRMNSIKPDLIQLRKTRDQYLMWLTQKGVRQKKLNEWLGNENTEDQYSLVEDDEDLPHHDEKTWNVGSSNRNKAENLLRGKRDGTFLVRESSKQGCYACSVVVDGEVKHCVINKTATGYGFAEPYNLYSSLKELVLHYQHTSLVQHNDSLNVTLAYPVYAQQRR
Protocol: PI3Kn activity was measured as the percent of ATP consumed following the kinase reaction using luciferase-luciferin-coupled chemiluminescence. Reactions were conducted in 384-well white, medium binding microtiter plates (Greiner). Kinase reactions were initiated by combining test compounds, ATP, substrate (PIP2), and kinase in a 20 μL volume in a buffer solution. The standard PI3Kalpha assay buffer was composed 50 mM Tris, pH 7.5, 1 mM EGTA, 10 mM MgCl2, 1 mM DTT and 0.03% CHAPS. The standard assay concentrations for enzyme, ATP, and substrate were 3 nM, 1 μM, and 10 μM, respectively. The reaction mixture was incubated at ambient temperature for approximately 2 h. Following the kinase reaction, a 10 μL aliquot of luciferase-luciferin mix (Promega Kinase-Glo) was added and the chemiluminescence signal measured using a Victor2 or EnVision (Perkin Elmer). Total ATP consumption was limited to 40-60% and IC50 values of control compounds correlate well with literature references. Substituting PI3Kα with PI3Krβ, PI3Kγ, or PI3Kδ, the inhibitory activity of the compounds for the other isoforms of PI3K were measured. For the PI3Kβ and PI3Kδ assays, enzyme concentrations were 10 nM and 4 nM, respectively. For the PI3Kγ assay, enzyme concentration was 40 nM, the incubation time was 1 h, and the concentration of MgCl2 in the assay buffer was 5 mM.

pIC50 (mTORC1) | pIC50 (PI3Kalpha) | SMILES
≥ 7.00 | ≥ 7.00 | CC[C@H]1CCc2c(nc(N)nc2N2CCOc3ccc(-c4cnc5sc(N)nc5c4)cc3C2)C1 [Compound 56, (7S)-4-[7-(2-amino[1,3]thiazolo[5,4-b]pyridin-6-yl)-2,3-dihydro-1,4-benzoxazepin-4(5H)-yl]-7-ethyl-5,6,7,8-tetrahydroquinazolin-2-amine]
≥ 7.00 | ≥ 7.00 | CC1(C)CCc2nc(CC#N)nc(N3CCOc4ccc(-c5cnc6sc(N)nc6c5)cc4C3)c2C1 [Compound 60, {4-[7-(2-amino[1,3]thiazolo[5,4-b]pyridin-6-yl)-2,3-dihydro-1,4-benzoxazepin-4(5H)-yl]-6,6-dimethyl-5,6,7,8-tetrahydroquinazolin-2-yl}acetonitrile]
≥ 7.00 | ≥ 7.00 | CC1(C)CCc2nc(N)nc(N3CCOc4ccc(-c5cnc6sc(N)nc6c5)cc4C3)c2C1 [Compound 61, 4-[7-(2-amino[1,3]thiazolo[5,4-b]pyridin-6-yl)-2,3-dihydro-1,4-benzoxazepin-4(5H)-yl]-6,6-dimethyl-5,6,7,8-tetrahydroquinazolin-2-amine]
≥ 7.00 | ≥ 7.00 | Cc1nc(CN(C)C)nc(N2CCOc3ccc(-c4cnc5sc(N)nc5c4)cc3C2)c1Cc1ccc(F)cc1 [Compound 62, 6-(4-{2-[(dimethylamino)methyl]-5-[(4-fluorophenyl)methyl]-6-methylpyrimidin-4-yl}-2,3,4,5-tetrahydro-1,4-benzoxazepin-7-yl)[1,3]thiazolo[5,4-b]pyridin-2-amine]
6.30 to 7.00 | ≥ 7.00 | CNc1nc(N)nc(N2CCOc3ccc(-c4cnc5sc(N)nc5c4)cc3C2)c1C [Compound 63, 6-[7-(2-amino[1,3]thiazolo[5,4-b]pyridin-6-yl)-2,3-dihydro-1,4-benzoxazepin-4(5H)-yl]-N~4~,5-dimethylpyrimidine-2,4-diamine]
6.30 to 7.00 | ≥ 7.00 | Cc1nc(CN(C)C)nc(N2CCOc3ccc(-c4cnc5sc(N)nc5c4)cc3C2)c1Cl [Compound 65, 6-(4-{5-chloro-2-[(dimethylamino)methyl]-6 methylpyrimidin-4-yl}-2,3,4,5-tetrahydro-1,4-benzoxazepin-7-yl)[1,3]thiazolo[5,4-b]pyridin-2-amine]
5.60 to 6.30 | 6.30 to 7.00 | Cc1nc(CN(C)C)nc(N2CCOc3ccc(-c4cnc5sc(N)nc5c4)cc3C2)c1F [Compound 66, 6-(4-{2-[(dimethylamino)methyl]-5-fluoro-6-methylpyrimidin-4-yl)-1,3,4,5-tetrahydro-1,4-benzoxazepin-7-yl)[1,3]thiazolo[5,4-b]pyridin-2-amine]

The remaining lines, values behind:

SMILES | pIC50 (mTORC1) | pIC50 (PI3Kalpha)
Cc1nc(CN(C)C)nc(N2CCOc3ccc(-c4cnc5sc(N)nc5c4)cc3C2)c1CC(O)CO (stereo not shown) [Compound 45, 3-{4-[7-(2-amino[1,3]thiazolo[5,4-b]pyridin-6-yl)-2,3-dihydro-1,4-benzoxazepin-4(5H)-yl]-2-[(dimethylamino)methyl]-6-methylpyrimidin-5-yl}propane-1,2-diol] | 5.60 to 6.30 | 5.60 to 6.30
Cc1cc(N2CCOc3ccc(-c4cnc5sc(N)nc5c4)cc3C2)nc(N)n1 [Compound 46, 6-[4-(2-amino-6-methylpyrimidin-4-yl)-2,3,4,5-tetrahydro-1,4-benzoxazepin-7-yl][1,3]thiazolo[5,4-b]pyridin-2-amine] | 5.60 to 6.30 | 6.30 to 7.00
CC(C)(C)c1cnc(N)nc1N1CCOc2ccc(-c3cnc4sc(N)nc4c3)cc2C1 [Compound 47, 6-{4-[2-amino-5-(1,1-dimethylethyl)pyrimidin-4-yl]-2,3,4,5-tetrahydro-1,4-benzoxazepin-7-yl}[1,3]thiazolo[5,4-b]pyridin-2-amine] | 5.60 to 6.30 | 5.60 to 6.30
CCOC(=O)c1cnc(N)nc1N1CCOc2ccc(-c3cnc4sc(N)nc4c3)cc2C1 [Compound 48, ethyl 2-amino-4-[7-(2-amino[1,3]thiazolo[5,4-b]pyridin-6-yl)-2,3-dihydro-1,4-benzoxazepin-4(5H)-yl]pyrimidine-5-carboxylate] | 6.30 to 7.00 | 6.30 to 7.00
N#Cc1cnc(N2CCOc3ccc(-c4cnc5sc(N)nc5c4)cc3C2)nc1N [Compound 49, 4-amino-2-[7-(2-amino[1,3]thiazolo[5,4-b]pyridin-6-yl)-2,3-dihydro-1,4-benzoxazepin-4(5H)-yl]pyrimidine-5-carbonitrile] | 6.30 to 7.00 | ≥ 7.00
Nc1cc(Cl)nc(N2CCOc3ccc(-c4cnc5sc(N)nc5c4)cc3C2)n1 [Compound 50, 6-[4-(4-amino-6-chloropyrimidin-2-yl)-2,3,4,5-tetrahydro-1,4-benzoxazepin-7-yl][1,3]thiazolo[5,4-b]pyridin-2-amine] | 6.30 to 7.00 | 6.30 to 7.00
Nc1cc(N2CCOc3ccc(-c4cnc5sc(N)nc5c4)cc3C2)nc(Cl)n1 [Compound 51, 6-[4-(6-amino-2-chloropyrimidin-4-yl)-2,3,4,5-tetrahydro-1,4-benzoxazepin-7-yl][1,3]thiazolo[5,4-b]pyridin-2-amine] | 6.30 to 7.00 | 5.60 to 6.30
C=Cc1c(C)nc(N)nc1N1CCOc2ccc(-c3cnc4sc(N)nc4c3)cc2C1 [Compound 52, 6-[4-(2-amino-5-ethenyl-6-methylpyrimidin-4-yl)-2,3,4,5-tetrahydro-1,4-bcnzoxazepin-7-yl][1,3]thiazolo[5,4-b]pyridin-2-amine] | ≥ 7.00 | ≥ 7.00
CC(O)c1c(Cl)nc(N)nc1N1CCOc2ccc(-c3cnc4sc(N)nc4c3)cc2C1 (stereo not shown) [Compound 53, 1-{2-amino-4-[7-(2-amino[1,3]thiazolo[5,4-b]pyridin-6-yl)-2,3-dihydro-1,4-benzoxazepin-4(5H)-yl]-6-chloropyrimidin-5-yl}ethanol] | ≥ 7.00 | ≥ 7.00
Cc1nc(CN(C)C)nc(N2CCOc3ccc(-c4cnc5sc(N)nc5c4)cc3C2)c1C(C)C [Compound 55, 6-(4-{2-[(dimethylamino)methyl]-6-methyl-5-(1-methylethyl)pyrimidin-4-yl}-2,3,4,5-tetrahydro-1,4-benzoxazepin-7-yl)[1,3]thiazolo[5,4-b]pyridin-2-amine] | ≥ 7.00 | ≥ 7.00
CC1CC(C)(C)Cc2c1nc(N)nc2N1CCOc2ccc(-c3cnc4sc(N)nc4c3)cc2C1 (stereo not shown) [Compound 57, 4-[7-(2-amino[1,3]thiazolo[5,4-b]pyridin-6-yl)-2,3-dihydro-1,4-benzoxazepin-4(5H)-yl]-6,6,8-trimethyl-5,6,7,8-tetrahydroquinazolin-2-amine] | ≥ 7.00 | ≥ 7.00
N#Cc1cnc(N)cc1N1CCOc2ccc(-c3cnc4sc(N)nc4c3)cc2C1 [Compound 58, 6-amino-4-[7-(2-amino[1,3]thiazolo[5,4-b]pyridin-6-yl)-2,3-dihydro-1,4-benzoxazepin-4(5H)-yl]pyridine-3-carbonitrile] | ≥ 7.00 | ≥ 7.00
Cc1nc2c(c(N3CCOc4ccc(-c5cnc6sc(N)nc6c5)cc4C3)n1)CC(C)(C)CC2 [Compound 59, 6-[4-(2,6,6-trimethyl-5,6,7,8-tetrahydroquinazolin-4-yl)-2,3,4,5-tetrahydro-1,4-benzoxazepin-7-yl][1,3]thiazolo[5,4-b]pyridin-2-amine] | ≥ 7.00 | ≥ 7.00
Cc1nc(CN(C)C)nc(N2CCOc3ccc(-c4cnc5sc(N)nc5c4)cc3C2)c1Br [Compound 64, 6-(4-{5-bromo-2-[(dimethylamino)methyl]-6-methylpyrimidin-4-yl}-2,3,4,5-tetrahydro-1,4-benzoxazepin-7-yl)[1,3]thiazolo[5,4-b]pyridin-2-amine] | 5.60 to 6.30 | ≥ 7.00
COc1nc(N)nc(N2CCOc3ccc(-c4cnc5sc(N)nc5c4)cc3C2)c1C [Compound 67] | 6.30 to 7.00 | ≥ 7.00
CCCc1c(C)nc(CN(C)C)nc1N1CCOc2ccc(-c3cnc4sc(N)nc4c3)cc2C1 [Compound 69, 6-(4-{2-[(dimethylamino)methyl]-6-methyl-5-propylpyrimidin-4-yl}-1,3,4,5-tetrahydro-1,4-benzoxazepin-7-yl)[1,3]thiazolo[5,4-b]pyridin-2-amine] | ≥ 7.00 | ≥ 7.00
